The record followed here is patent publication US7824680B2, “Methods for inhibiting angiogenesis” (The Regents of the University of California, priority 2001, dated 2010).

The subject of the assay is mice. The assay can be described thus: Murine bFGF matrigel plug angiogenesis, lectin-FITC fluorescence. The following applies: bFGF matrigel s.c. containing 25 μg/ml antibody or 1 mM peptide; 72 hours. It counts as in vivo. Here is the method: Angiogenesis was induced by subcutaneous injection of 400 μl of growth factor depleted matrigel supplemented 0.4 μg/ml bFGF and saline, 25 μg/ml function blocking anti-α4β1 antibodies or control antibodies. Alternatively, mice were injected with matrigel containing bFGF and 1 mM of the sequence EILDVPST (SEQ ID NO:52) or the control sequence EILEVPST (SEQ ID NO:53). After 72 hours, mice were injected with Bandiera Simplicifolia lectin-FITC conjugate. After 15 minutes, matrigel plugs were excised and homogenized. Fluorescence intensity within the lysed plug was determined and correlated with degree of angiogenesis as determined by standard immunohistochemical analyses.

With “EILDVPST [peptide antagonist of integrin α4β1]”, the “growth factor-stimulated angiogenesis (fluorescence intensity within the lysed matrigel plug)” value was “selectively and specifically inhibited”.
